PubChem BioAssay (NCI)
“And” between values parts separate entries of the source, which are not always exact repeats. Equal entries are not always repeated.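 Grown in 96-well plates, cells were treated for 48 hours with each compound at five concentrations. Insufficient inhibition: endpoint recorded as highest concentration tested. GI50 is the concentration that inhibits growth by half. TGI marks complete inhibition of growth.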

How the values were obtained:
Assay in all cases: DTP human tumour cell line panel, 48 h
[1] = tested on: CAKI-1 renal
[2] = tested on: CCRF-CEM leukemia
[3] = tested on: COLO 205 colon
[4] = tested on: HL-60(TB) leukemia
[5] = tested on: MOLT-4 leukemia
[6] = tested on: SK-MEL-28 melanoma
[7] = tested on: SK-OV-3 ovarian
[8] = tested on: HOP-92 NSCLC

SMILES | GI50 [1] | TGI [1] | GI50 [2] | TGI [2] | GI50 [3] | TGI [3] | GI50 [4] | TGI [4] | GI50 [5] | TGI [5] | GI50 [6] | TGI [6] | GI50 [7] | TGI [7] | GI50 [8] | TGI [8]
CC/C=C\C[C@H](F)C/C=C1/C(=O)C=C[C@@H]1C/C=C\CCCC(=O)OC | 1.87 µM | 6.82 µM | 1.38 µM | 5.75 µM | 1.22 µM | 2.72 µM | 1.52 µM | 6.29 µM | 1.45 µM | 5.27 µM | 1.52 µM | 4.94 µM | 10.5 µM | 32.1 µM |  | 
CCCc1n(Cc2ccc3ccccc3c2)cc[n+]1Cc1ccc2ccccc2c1 |  |  | 1.48 µM | 4.93 µM | 0.458 µM | 1.72 µM | 0.321 µM | 1.17 µM | 1.46 µM | 4.07 µM | 1.06 µM | 2.52 µM | 1.74 µM | 4.95 µM | 0.863 µM | 2.66 µM
Nc1c(C(=O)Nc2ccccc2)sc2nc3c(cc12)CCCCC3 | 0.478 µM | > 100 µM | 0.41 µM | > 100 µM |  |  | 0.319 µM | 1.85 µM | 2.67 µM | > 100 µM | 0.812 µM | > 100 µM | 0.633 µM | 10.8 µM | 0.91 µM | 18 µM
Cc1ccc(Nc2nccc(N(C)c3ccc4c(C)n(C)nc4c3)n2)cc1S(N)(=O)=O | 1.43 µM and 4.39 µM | > 100 µM | 4.37 µM and 7.01 µM and 8.07 µM | > 100 µM |  |  | 6.45 µM and 1.94 µM and 7.14 µM | 30.6 µM and > 10 µM and 34 µM | 4 µM and 2.26 µM and 5.27 µM | 24 µM and > 10 µM and 47.1 µM |  | > 100 µM and > 10 µM and 84.2 µM | 2.93 µM and 4.9 µM and 4.24 µM | 29.6 µM and > 10 µM and > 100 µM |  | 
O=S(=O)(CCN1CCOCC1)Nc1cc(-c2ccc3ncnc(Nc4ccc(F)c(Cl)c4)c3c2)cnc1Cl |  |  | 0.455 µM | > 100 µM |  |  | 1.15 µM | 12.4 µM |  |  | 0.297 µM | 8.62 µM | 0.286 µM | 1.94 µM |  | 
COc1ccc2c(c1)c(-c1nc(-c3c[nH]c4ncccc34)cs1)cn2CCCN1CCCCC1 |  |  |  |  | 1.8 µM | 3.52 µM | 1.86 µM | 3.79 µM |  |  | 1.72 µM | 3.26 µM | 1.73 µM | 3.27 µM | 1.5 µM | 3.1 µM
COC(OC)c1cc2c(cc1C=O)OCO2 |  | > 100 µM |  | > 100 µM |  |  |  | > 100 µM |  | > 100 µM |  | > 100 µM |  | > 100 µM |  | > 100 µM
O=c1[nH]c2ccccc2c2nc3ccccc3n12 |  | 93.7 µM |  | > 100 µM |  | > 100 µM |  | > 100 µM |  | > 100 µM |  |  |  | 49.7 µM |  | > 100 µM
O=C1C(=C(C(F)(F)Cl)C(F)(F)Cl)C2CCC1C2 (stereo not given) |  |  |  | > 10 µM |  | 3.25 µM |  | > 3.16 µM |  | > 3.53 µM |  | 3.96 µM |  | > 10 µM |  | 6.42 µM
COc1ccc(/C=C2\CN(C(=O)C(Cl)Cl)C/C(=C\c3ccc(OC)cc3)C2=O)cc1 |  |  | 0.528 µM | > 100 µM |  |  | 0.791 µM | 7.52 µM | 1.78 µM | > 100 µM |  |  | 4.2 µM | > 100 µM |  | 
CC(=O)OC1CCC2(C)C(CCC3C2CC(=O)C2(C)C3CC(N3CC3)C2C(C)=O)C1 (stereo not given) |  | 34.6 µM |  |  |  | 35.7 µM |  |  |  | 34.4 µM |  | > 100 µM |  |  |  | 43.1 µM
